Experimental data published in US12655116B2, “Substituted isophthalic acid diamides” (Bayer Aktiengesellschaft, priority 2020, dated 2026).

Legend:
SETVI [1] = experiment: Pre-emergence herbicidal action against SETVI; assay type: in vivo, Setaria viridis; settings: dosage 80 g/ha
How it was run: (§1)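 Visual rating at 3 weeks vs untreated pots; 0–100% scale, 100% = plants died. Treatment: aqueous WP/EC spray onto covering soil, 600–800 l/ha, 0.2% wetter, seeds in sandy loam.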

PHBPU [2] = experiment: Post-emergence herbicidal action against PHBPU; assay type: in vivo, Pharbitis purpurea; settings: dosage 20 g/ha
How it was run: (§2)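 Greenhouse pot plants in sandy loam were sprayed at the one-leaf stage, 2 to 3 weeks after sowing, with WP or EC formulations as aqueous suspension or emulsion (600 to 800 l/ha water, 0.2% wetting agent). About 3 weeks later, damage was scored visually against untreated controls as % action (100% = dead, 0% = like control).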

ABUTH [3] = experiment: Pre-emergence herbicidal action against ABUTH; assay type: in vivo, Abutilon theophrasti
How it was run: as §1

MATIN [4] = experiment: Pre-emergence herbicidal action against MATIN; assay type: in vivo, Matricaria inodora
How it was run: as §1

SETVI [5] = experiment: Post-emergence herbicidal action against SETVI; assay type: in vivo, Setaria viridis; settings: dosage 20 g/ha
How it was run: as §2

VIOTR [6] = experiment: Pre-emergence herbicidal action against VIOTR; assay type: in vivo, Viola tricolor
How it was run: as §1

POLCO = experiment: Pre-emergence herbicidal action against POLCO; assay type: in vivo, Polygonum convolvulus; settings: dosage 80 g/ha
How it was run: as §1

LOLRI = experiment: Pre-emergence herbicidal action against LOLRI; assay type: in vivo, Lolium rigidum; settings: 80 g/ha
How it was run: as §1

AVEFA [7] = experiment: Pre-emergence herbicidal action against AVEFA; assay type: in vivo, Avena fatua; settings: pre-emergence
How it was run: as §1

DIGSA [8] = experiment: Pre-emergence herbicidal action against DIGSA; assay type: in vivo, Digitaria sanguinalis
How it was run: as §1

ECHCG [9] = experiment: Pre-emergence herbicidal action against ECHCG; assay type: in vivo, Echinochloa crus-galli; settings: 80 g/ha
How it was run: as §1

AMARE [10] = experiment: Post-emergence herbicidal action against AMARE; assay type: in vivo, Amaranthus retroflexus; settings: 20 g/ha, visual assessment about 3 weeks after treatment, 100% = plants have died, 0% = like control plants
How it was run: as §2

AMARE [11] = experiment: Pre-emergence herbicidal action against AMARE; assay type: in vivo, Amaranthus retroflexus
How it was run: as §1

STEME = experiment: Pre-emergence herbicidal action against STEME; assay type: in vivo, Stellaria media
How it was run: as §1

VERPE = experiment: Pre-emergence herbicidal action against VERPE; assay type: in vivo, Veronica persica; settings: dosage 80 g/ha
How it was run: as §1

ECHCG [12] = experiment: Post-emergence herbicidal action against ECHCG; assay type: in vivo, Echinochloa crus-galli; settings: dosage 20 g/ha
How it was run: as §2

MATIN [13] = experiment: Post-emergence herbicidal action against MATIN; assay type: in vivo, Matricaria inodora
How it was run: as §2

ALOMY [14] = experiment: Pre-emergence herbicidal action against ALOMY; assay type: in vivo, Alopecurus myosuroides; settings: pre-emergence
How it was run: as §1

ABUTH [15] = experiment: Post-emergence herbicidal action against ABUTH; assay type: in vivo, Abutilon theophrasti; settings: visual assessment about 3 weeks after treatment vs untreated controls
How it was run: as §2

DIGSA [16] = experiment: Post-emergence herbicidal action against DIGSA; assay type: in vivo, Digitaria sanguinalis; settings: 20 g/ha
How it was run: as §2

VIOTR [17] = experiment: Post-emergence herbicidal action against VIOTR; assay type: in vivo, Viola tricolor
How it was run: as §2

PHBPU [18] = experiment: Pre-emergence herbicidal action against PHBPU; assay type: in vivo, Pharbitis purpurea; settings: dosage 80 g/ha
How it was run: as §1

AVEFA [19] = experiment: Post-emergence herbicidal action against AVEFA; assay type: in vivo, Avena fatua; settings: Avena fatua, 504 h, 20 g/ha, visual assessment about 3 weeks after treatment, 100% = plants have died, 0% = like control plants
How it was run: as §2

ALOMY [20] = experiment: Post-emergence herbicidal action against ALOMY; assay type: in vivo, Alopecurus myosuroides; settings: Alopecurus myosuroides, 504 h, visual assessment about 3 weeks after treatment vs untreated controls
How it was run: as §2

[21] = 80 g/ha, scored visually after 3 weeks vs untreated controls (100% = plants have died, 0% = like control plants)
[22] = Tripleurospermum inodorum, 504 h, dosage 20 g/ha

Compound: CCNC(=O)c1c(C(F)F)ccc(C(=O)Nc2nnnn2CC)c1C [Example 2-45]
- Pre-emergence action against SETVI in % (SETVI [1]): 100%
- Post-emergence action against PHBPU in % (PHBPU [2]): 80%
- Pre-emergence action against ABUTH (herbicidal activity) (ABUTH [3]; [21]): 100%
- Pre-emergence action against ABUTH (herbicidal activity in percent) (ABUTH [3]; dosage 20 g/ha, scored visually after 3 weeks vs untreated controls, 100% = plants have died, 0% = like control plants): 80%
- Pre-emergence action against MATIN in % (MATIN [4]; dosage 20 g/ha): 90%
- Pre-emergence action against MATIN in % (MATIN [4]; dosage 80 g/ha): 100%
- Post-emergence action against SETVI in % (SETVI [5]): 80%
- Pre-emergence action against VIOTR in % (VIOTR [6]; dosage 20 g/ha): 90%
- Pre-emergence action against VIOTR in % (VIOTR [6]; dosage 80 g/ha): 100%
- Pre-emergence action against POLCO in % (POLCO): 90%
- Pre-emergence action against LOLRI in % (LOLRI): 80%
- Pre-emergence action against AVEFA in % (AVEFA [7]; 80 g/ha): 100%
- Pre-emergence action against DIGSA in % (DIGSA [8]; dosage 20 g/ha): 90%
- Pre-emergence action against DIGSA in % (DIGSA [8]; dosage 80 g/ha): 100%
- Pre-emergence action against ECHCG in % (ECHCG [9]): 100%
- Post-emergence action at 20 g/ha against AMARE in % (AMARE [10]): 100%
- Pre-emergence action against AMARE in % (AMARE [11]; 20 g/ha, scored visually after 3 weeks vs untreated controls, 100% = plants have died, 0% = like control plants): 100%
- Pre-emergence action against AMARE in % (AMARE [11]; [21]): 100%
- Pre-emergence action against STEME in % (STEME; dosage 20 g/ha): 90%
- Pre-emergence action against STEME in % (STEME; dosage 80 g/ha): 100%
- Pre-emergence action against VERPE in % (VERPE): 90%
- Post-emergence action against ECHCG in % (ECHCG [12]): 80%
- Post-emergence action against MATIN in % (MATIN [13]; dosage 20 g/ha): 80%
- Pre-emergence action against ALOMY (herbicidal activity) (ALOMY [14]; [21]): 90%
- Post-emergence action against ABUTH in % (ABUTH [15]; dosage 5 g/ha): 80%
- Post-emergence action against ABUTH in % (ABUTH [15]; dosage 20 g/ha): 80%
- Post-emergence action against DIGSA (DIGSA [16]): 80%
- Post-emergence action against VIOTR in % (VIOTR [17]; 5 g/ha): 80%
- Post-emergence action against VIOTR in % (VIOTR [17]; 20 g/ha): 100%
- Pre-emergence action against PHBPU in % (PHBPU [18]): 80%

Compound: CCNC(=O)c1c(Br)ccc(C(=O)Nc2nnnn2CC)c1Cl [Example 2-178]
- pest or weed control at 80 g/ha (SETVI [1]; Setaria viridis, 504 h): 100%
- pest or weed control at 20 g/ha (PHBPU [2]; Ipomoea purpurea, 504 h): 90%
- pest or weed control at 80 g/ha (ABUTH [3]; Abutilon theophrasti, 504 h, 80 g/ha, scored visually after 3 weeks vs untreated controls (100% = plants have died, 0% = like control plants)): 100%
- pest or weed control at 20 g/ha (MATIN [4]; [22]): 90%
- pest or weed control at 80 g/ha (MATIN [4]; Tripleurospermum inodorum, 504 h, dosage 80 g/ha): 100%
- pest or weed control at 20 g/ha (SETVI [5]; Setaria viridis, 504 h): 90%
- pest or weed control at 20 g/ha (VIOTR [6]; Viola tricolor, 504 h, dosage 20 g/ha): 100%
- pest or weed control at 80 g/ha (VIOTR [6]; Viola tricolor, 504 h, dosage 80 g/ha): 100%
- pest or weed control at 80 g/ha (LOLRI; Lolium rigidum, 504 h): 80%
- pest or weed control at 80 g/ha (AVEFA [7]; Avena fatua, 504 h, 80 g/ha): 100%
- pest or weed control at 20 g/ha (AVEFA [7]; Avena fatua, 504 h, 20 g/ha, scored visually after 3 weeks, 100% = plants have died, 0% = like control plants): 90%
- pest or weed control at 20 g/ha (DIGSA [8]; Digitaria sanguinalis, 504 h, dosage 20 g/ha): 100%
- pest or weed control at 80 g/ha (DIGSA [8]; Digitaria sanguinalis, 504 h, dosage 80 g/ha): 100%
- pest or weed control at 80 g/ha (ECHCG [9]; Echinochloa crus-galli, 504 h): 100%
- pest or weed control at 20 g/ha (AVEFA [19]): 80%
- pest or weed control at 20 g/ha (AMARE [10]; Amaranthus retroflexus, 504 h): 100%
- pest or weed control at 20 g/ha (AMARE [11]; Amaranthus retroflexus, 504 h, 20 g/ha, scored visually after 3 weeks vs untreated controls, 100% = plants have died, 0% = like control plants): 100%
- pest or weed control at 80 g/ha (AMARE [11]; Amaranthus retroflexus, 504 h, 80 g/ha, scored visually after 3 weeks vs untreated controls, 100% = plants have died, 0% = like control plants): 100%
- pest or weed control at 80 g/ha (VERPE; Veronica persica, 504 h): 90%
- pest or weed control at 20 g/ha (ECHCG [12]; Echinochloa crus-galli, 504 h): 90%
- pest or weed control at 5 g/ha (MATIN [13]; Tripleurospermum inodorum, 504 h, dosage 5 g/ha): 90%
- pest or weed control at 20 g/ha (MATIN [13]; [22]): 90%
- pest or weed control at 80 g/ha (ALOMY [14]; Alopecurus myosuroides, 504 h, 80 g/ha, scored visually after 3 weeks vs untreated controls (100% = plants have died, 0% = like control plants)): 100%
- pest or weed control at 20 g/ha (ALOMY [14]; Alopecurus myosuroides, 504 h, 20 g/ha, scored visually after 3 weeks, 100% = plants have died, 0% = like control plants): 80%
- pest or weed control at 5 g/ha (ALOMY [20]; dosage 5 g/ha): 80%
- pest or weed control at 20 g/ha (ALOMY [20]; dosage 20 g/ha): 90%
- pest or weed control at 5 g/ha (ABUTH [15]; Abutilon theophrasti, 504 h, dosage 5 g/ha): 90%
- pest or weed control at 20 g/ha (ABUTH [15]; Abutilon theophrasti, 504 h, dosage 20 g/ha): 90%
- pest or weed control at 20 g/ha (VIOTR [17]; Viola tricolor, 504 h, 20 g/ha): 90%
